Patent US11766405B2 (MEDAC GESELLSCHAFT FUR KLINISCHE SPEZIALPRAPARATE MBH, priority 2013, dated 2023)
Several values for one entry are separate records, joined by “and”; a condition that tells them apart may be missing. Equal values may be shown once.

Experiments:
Type in all cases: physicochemical
[1] = HPLC determination of impurities / mitomycin purity, process 2 (UV 254 nm)
Experimental: Column: YMC-Pack Phenyl 4.6 mm×300 mm, 10 μm […]
Purity determinations according to process 2 were performed at different times. […]

[2] = Impurities / purity, process 4 (impurities process Ph Eur 8.0 Mitomycin Monograph); conditions: for Impurity albomitomycin C / Sum of all impurities: Example 13 urea lyophilisate, process 4; for Mitomycin purity: No. 7: DMSO 100 wt.-%, 1.82 mg/g mitomycin C, 27.3 mg/g urea, room temperature, exclusion of light
Experimental: The composition according to the invention comprises the impurities D1, D2 and albomitomycin C in a total quantity of in particular less than 2.0%, preferably less than 1.5%, particularly preferably less than 1.0%, more preferably less than 0.8% and quite particularly preferably less than 0.6%, wherein the quantity of these impurities is determined according to the impurities process according to Ph Eur 8.0 Mitomycin Monograph January 2008: 1655. In the examples, this determination process is also referred to as process 4.
(§1) The solutions were stored at room temperature and with exclusion of light for a period of up to 71.5 hours.
Process 3 corresponds to the content process according to Ph Eur 8.0 Mitomycin Monograph January 2008: 1655. Process 4 corresponds to the impurities process according to Ph Eur 8.0 Mitomycin Monograph January 2008: 1655.
(§2) The reconstitution was effected with 20 and 40 ml respectively of isotonic saline solution to an end concentration of 1 mg/ml.

[3] = Reconstitution time of lyophilisates; conditions: Example 13 urea lyophilisate
Experimental: Moreover, the lyophilisates could be completely reconstituted with isotonic saline solution in very much less than 30 secs.
In addition, the reconstitution time was determined.
as §2

[4] = Mitomycin C content, process 3 (content process Ph Eur 8.0 Mitomycin Monograph); conditions: for Mitomycin C content: process 3; for Mitomycin content: No. 6: DMSO/DMAA 5.7/94.3 wt.-%, 0.53 mg/g mitomycin C, 8.0 mg/g urea, room temperature, exclusion of light
Experimental: as §1
Process 3 corresponds to the content process according to Ph Eur 8.0 Mitomycin Monograph January 2008: 1655. Process 4 corresponds to the impurities process according to Ph Eur 8.0 Mitomycin Monograph January 2008: 1655. […]

[5] = 20 mg mitomycin C, 40° C. and 75% r.h., t = 3 months
[6] = 20 mg mitomycin C, 40° C. and 75% r.h., t = 6 months
[7] = 40 mg mitomycin C, 40° C. and 75% r.h., t = 3 months
[8] = 40 mg mitomycin C, 40° C. and 75% r.h., t = 6 months

Structure (SMILES): CO[C@@]12[C@H](COC(N)=O)C3=C(C(=O)C(C)=C(N)C3=O)N1C[C@@H]1N[C@@H]12 [Mitomycin C, (1aS,8S,8aR,8bS)-6-amino-8-[[(aminocarbonyl)oxy]methyl]-1,1a,2,8,8a,8b-hexahydro-8a-methoxy-5-methyl-azirino[2′,3′:3,4]pyrrolo[1,2-a]indol-4,7-dione]
- Mitomycin purity [1]: 98.86% and 96.77% and 97.04%
- Mitomycin purity ([1]; Example 5 solution: 3.33 mg/g mitomycin C, 5 wt.-% urea, 89/11 wt.-% tert.-butanol/water, 5° C. with exclusion of light, t = 0): 99.23%
- Mitomycin purity ([1]; Example 5 solution: 3.33 mg/g mitomycin C, 5 wt.-% urea, 89/11 wt.-% tert.-butanol/water, 5° C. with exclusion of light, t = 6 h): 99.18%
- Mitomycin purity ([1]; Example 5 solution: 3.33 mg/g mitomycin C, 5 wt.-% urea, 89/11 wt.-% tert.-butanol/water, 5° C. with exclusion of light, t = 24 h): 99.20%
- Mitomycin purity ([1]; Example 5 solution: 3.33 mg/g mitomycin C, 5 wt.-% urea, 89/11 wt.-% tert.-butanol/water, 5° C. with exclusion of light, t = 72 h): 98.80%
- Mitomycin purity ([1]; Example 5 solution: 3.33 mg/g mitomycin C, 5 wt.-% urea, 89/11 wt.-% tert.-butanol/water, 5° C. with exclusion of light, t = 9 d): 98.21%
- Mitomycin purity ([1]; Example 5 solution: 3.33 mg/g mitomycin C, 5 wt.-% urea, 89/11 wt.-% tert.-butanol/water, RT with exclusion of light, t = 0): 99.33%
- Mitomycin purity ([1]; Example 5 solution: 3.33 mg/g mitomycin C, 5 wt.-% urea, 89/11 wt.-% tert.-butanol/water, RT with exclusion of light, t = 6 h): 98.83%
- Mitomycin purity ([1]; Example 5 solution: 3.33 mg/g mitomycin C, 5 wt.-% urea, 89/11 wt.-% tert.-butanol/water, RT with exclusion of light, t = 24 h): 97.80%
- Mitomycin purity ([1]; Example 5 solution: 3.33 mg/g mitomycin C, 5 wt.-% urea, 89/11 wt.-% tert.-butanol/water, RT with exclusion of light, t = 72 h): 96.74%
- Mitomycin purity ([1]; Example 5 solution: 3.33 mg/g mitomycin C, 5 wt.-% urea, 89/11 wt.-% tert.-butanol/water, RT with exclusion of light, t = 9 d): 96.35%
- Mitomycin purity ([1]; Example 5 solution: 3.33 mg/g mitomycin C, 5 wt.-% urea, 89/11 wt.-% tert.-butanol/water, RT without protection against light, t = 0): 99.32%
- Mitomycin purity ([1]; Example 5 solution: 3.33 mg/g mitomycin C, 5 wt.-% urea, 89/11 wt.-% tert.-butanol/water, RT without protection against light, t = 6 h): 98.83%
- Mitomycin purity ([1]; Example 5 solution: 3.33 mg/g mitomycin C, 5 wt.-% urea, 89/11 wt.-% tert.-butanol/water, RT without protection against light, t = 24 h): 97.60%
- Mitomycin purity ([1]; Example 5 solution: 3.33 mg/g mitomycin C, 5 wt.-% urea, 89/11 wt.-% tert.-butanol/water, RT without protection against light, t = 72 h): 96.14%
- Mitomycin purity ([1]; Example 5 solution: 3.33 mg/g mitomycin C, 5 wt.-% urea, 89/11 wt.-% tert.-butanol/water, RT without protection against light, t = 9 d): 95.78%
- Mitomycin C purity ([1]; Example 7 solution: 1.33 mg/g mitomycin C, 20 mg/g urea, 89/11 wt.-% tert.-butanol/water, 5° C. with exclusion of light, t = 27 h): 99.7%
- Mitomycin C purity ([1]; Example 7 solution: 1.33 mg/g mitomycin C, 20 mg/g urea, 89/11 wt.-% tert.-butanol/water, RT with exclusion of light, t = 5 h): 99.7%
- Mitomycin C purity ([1]; Example 7 solution: 1.33 mg/g mitomycin C, 20 mg/g urea, 89/11 wt.-% tert.-butanol/water, RT with exclusion of light, t = 22 h): 99.2%
- Mitomycin C purity ([1]; Example 7 solution: 1.33 mg/g mitomycin C, 20 mg/g urea, 89/11 wt.-% tert.-butanol/water, RT with exclusion of light, t = 27 h): 98.9%
- Mitomycin C purity ([1]; Example 8 solution: 1.67 mg/g mitomycin C, 25 mg/g urea, 89/11 wt.-% tert.-butanol/water, RT with exclusion of light, t = 5 h): 99.6%
- Mitomycin C purity ([1]; Example 8 solution: 1.67 mg/g mitomycin C, 25 mg/g urea, 89/11 wt.-% tert.-butanol/water, RT with exclusion of light, t = 22 h): 99.1%
- Mitomycin C purity ([1]; Example 8 solution: 1.67 mg/g mitomycin C, 25 mg/g urea, 89/11 wt.-% tert.-butanol/water, RT with exclusion of light, t = 27 h): 98.6%
- Impurity albomitomycin C [2, 5]: 0.20%
- Sum of all impurities [2, 5]: 0.55%
- Impurity albomitomycin C [2, 6]: 0.26%
- Sum of all impurities [2, 6]: 0.61%
- Impurity albomitomycin C ([2]; 20 mg mitomycin C, t = 0): 0.29%
- Sum of all impurities ([2]; 20 mg mitomycin C, t = 0): 0.29%
- Impurity albomitomycin C [2, 7]: 0.22%
- Sum of all impurities [2, 7]: 0.55
- Impurity albomitomycin C [2, 8]: 0.21%
- Sum of all impurities [2, 8]: 0.58
- Impurity albomitomycin C ([2]; 40 mg mitomycin C, t = 0): 0.32%
- Sum of all impurities ([2]; 40 mg mitomycin C, t = 0): 0.32
- Mitomycin purity ([2]; t = 0): 100%
- Mitomycin purity ([2]; t = 4 h): 99.31%
- Mitomycin purity ([2]; t = 6.5 h): 99.32%
- Mitomycin purity ([2]; t = 13 h): 99.19%
- Mitomycin purity ([2]; t = 20 h): 99.36%
- Mitomycin purity ([2]; t = 26.5 h): 99.32%
- Reconstitution time ([3]; 20 mg mitomycin C, 20 ml isotonic saline to 1 mg/ml, 40° C. and 75% r.h., t = 3 months): 12 s
- Reconstitution time ([3]; 20 mg mitomycin C, 20 ml isotonic saline to 1 mg/ml, 40° C. and 75% r.h., t = 6 months): 17 s
- Reconstitution time ([3]; 20 mg mitomycin C, 20 ml isotonic saline to 1 mg/ml, t = 0): 7 s
- Reconstitution time ([3]; 40 mg mitomycin C, 40 ml isotonic saline to 1 mg/ml, 40° C. and 75% r.h., t = 3 months): 20 s
- Reconstitution time ([3]; 40 mg mitomycin C, 40 ml isotonic saline to 1 mg/ml, 40° C. and 75% r.h., t = 6 months): 18 s
- Reconstitution time ([3]; 40 mg mitomycin C, 40 ml isotonic saline to 1 mg/ml, t = 0): 6 s
- Mitomycin C content ([4]; Example 13 urea lyophilisate, 20 mg mitomycin C, 40° C. and 75% r.h., t = 3 months): 98.2%
- Mitomycin C content ([4]; Example 13 urea lyophilisate, 20 mg mitomycin C, 40° C. and 75% r.h., t = 6 months): 98.3%
- Mitomycin C content ([4]; Example 13 urea lyophilisate, 20 mg mitomycin C, t = 0): 97.8%
- Mitomycin C content ([4]; Example 13 urea lyophilisate, 40 mg mitomycin C, 40° C. and 75% r.h., t = 3 months): 96.6%
- Mitomycin C content ([4]; Example 13 urea lyophilisate, 40 mg mitomycin C, 40° C. and 75% r.h., t = 6 months): 96.7%
- Mitomycin C content ([4]; Example 13 urea lyophilisate, 40 mg mitomycin C, t = 0): 97.2%
- Mitomycin C content ([4]; Example 14 urea lyophilisate (20 mg) reconstituted with water for injection, end concentration 1 mg/ml): 100.6%
- Mitomycin C content ([4]; Example 14 urea lyophilisate (20 mg) reconstituted with water for injection, end concentration 2 mg/ml): 100.6%
- Mitomycin content ([4]; t = 0): 100%
- Mitomycin content ([4]; t = 6.5 h): 99.93%
- Mitomycin content ([4]; t = 14.5 h): 99.62%
- Mitomycin content ([4]; t = 21 h): 98.84%
- Mitomycin content ([4]; t = 42 h): 99.11%
- Mitomycin content ([4]; t = 71.5 h): 98.58%
